Data on eleven compounds can be found in PMC12434534, “Synthesis and Antiviral Evaluation of Unexplored Dioxolane-Derived 7‑Deazapurine Nucleoside Analogues against Epstein–Barr Virus (EBV)” (ACS Medicinal Chemistry Letters, 2025).

Read-outs that look alike come from different tables or passages of the source.

The nature of data set [1]: Cytotoxicity in P3HR-1 cells (XTT or MTT assay). The following applies: human. The class given is cell-based. In general terms: Tetrazolium assays rely on reduction of a dye to a coloured formazan, in cell work by metabolically active cells.
Data set [2] can be described thus: Cytotoxicity in TZM-GFP cells (XTT or MTT assay). In kind it is cell-based. To be noted: human; concentration reducing cellular viability by 50% after 48 h, XTT or MTT assay; TZM-GFP cells. The protocol: (§1) plate. […] At 48 h post-infection (hpi), the
(§2) Blood and Tissue Kit. The DNA volume was 30 μL. DNA concentration (ng/μL) was determined with a Nanophotometer (IMPLEN). The Real -time PCR was performed using QuantiTect Sybr […]
(§3) Green PCR Kit. […] The primers were
(§4) The 20 μL PCR sample contained 100 ng
(§5) (Restriction Enzyme, BioLabs) and RNase -free water. The PCR program consisted of 1 cycle at […]
(§6) allowed to incubate overnight. On the second day, different concentrations of test compounds were […]
(§7) added to respective cells. Following 4 days of incubation at 37 °C in a CO2 incubator, the MTT or […]
(§8) XTT reagent was added, and the cells were incubated for 3 hours at 37 °C. Subsequently, the […]
(§9) absorbance of the samples was measured using a microplate reader (Biotek). The cytotoxic […]
(§10) concentration (CC50) was determined based on the viability of mock-infected cells. […]

Data set [3] relates to HIV-FL. As to the kind of experiment: microbe, parasite or virus in culture. The method, then:
First, TZM-GFP cells were seeded in the 96-well plate (10 000/well), and after 24 h, selected compounds and HIV FL virus (MOI = 0.1) were added to the plate. […] At 48 h post-infection (hpi), GFP production due to infection was measured by Cytation 5, and a 50% reduction in efficacy (EC50) and cell viability (CC50) were determined using GraphPad software (San Diego, CA, USA, www.graphpad.com). […]
(10,000/well), and after 24 h, selected compounds and HIV FL (MOI=0.1) virus were added to the […]
plate. […] At 48 h post-infection (hpi), the GFP cells were measured by Cytation 5, and a 50% reduction in efficacy (EC50) and cell viability (CC50) was determined using GraphPad software (San Diego, California, www.graphpad.com). […]
(§11) Evaluation of Cytotoxicity: The cytotoxic effects of test compounds for P3HR1 and TZN-GFP cells were determined by CellTiter 96 Non-Radioactive Cell Proliferation assay system (Promega) using either 2,3-Bis-(2-Methoxy-4-nitro-5-sulfophenyl)-2H-tetrazolium-5-carboxanilide, disodium salt (XTT) or 3- (4,5-dimethylthiazol-2-yl)-2,5-diphenyltetrazolium bromide (MTT) methods under the same conditions as the antiviral assay but in the absence virus. Cells were seeded at a density of 1 x 105 (P3HR-1) or 2 x 104 (TZM-GFP) cells per well in 96-well plates and […]

Data set [4] concerns EBV. As to the kind of experiment: Anti-EBV assay: reduction of EBV DNA synthesis (qPCR) in TPA-induced P3HR-1 cells. To be noted: for EC50: human gammaherpesvirus 4, P3HR-1, 120 h, read-out: EC50, Antiviral Activity against EBV (in P3HR-1 Cells); for EC90: human gammaherpesvirus 4, P3HR-1, read-out: EC90, Antiviral Activity against EBV (in P3HR-1 Cells); for SI (CC50/EC50), EBV: selectivity index = CC50/EC50, P3HR-1 cells. The method, then:
The antiviral potency of all synthesized nucleosides was evaluated by in-vitro cell-based assays. P3HR-1 cells were seeded in 24-well plates at a density of 1 × 10^6 cells/mL. EBV replication was induced by adding 25 ng/mL 12-O-tetradecanoylphorbol 13-acetate (TPA) (Sigma–Aldrich, Bornem, Belgium) to the growing cells. The next day, cells were washed and resuspended in fresh medium in the presence or absence of various concentrations of synthesized nucleosides (12–19). Ganciclovir (GCV) was used as antiviral control. On day 5 post-induction, total cellular DNA was extracted (QIAamp DNA kit; Qiagen Benelux B.V, Venlo, The Netherlands), and viral DNA was quantified by quantitative PCR (qPCR) using an ABI Prism 7500 Sequence Detection System (Applied Biosystems, Foster City, CA). Thermocycling conditions for all qPCRs were done following the manufacturer’s instructions. […] The results were obtained as a means from at least three independent experiments. The selectivity index of the compound was determined by the ratio of CC50/EC50. For both efficacy and cytotoxicity assays, the 50% reduction in efficacy (EC50) and cell viability (CC50) was determined using GraphPad software (GraphPad, San Diego, CA, USA, www.graphpad.com).
0.2, 0.04, 0 μM). TPA was removed after 24 h, and the same concentration of compounds was […]
replaced. […]
Real-time PCR detection of viral DNA: EBV DNA was extracted with a QIAGEN Dneasy Blood and Tissue Kit. The DNA volume was 30 μL. DNA concentration (ng/μL) was determined with a Nanophotometer (IMPLEN). The Real -time PCR was performed using QuantiTect Sybr Green PCR Kit. The amplicon was a 71 bp portion of the EBNA1 gene. The primers were […]
as §4
DNA, 10 μL Universal PCR Master Mix, primer (0.5 uM final concentration), 1 μL BamH I-HF (Restriction Enzyme, BioLabs) and RNase -free water. The PCR program consisted of 1 cycle at 50 °C, 2 minutes of UNG pretreatment, followed by 1 cycle at 95 °C for 15 minutes. Then 40 cycles of 94 °C for 15 seconds, 55 °C for 30 seconds, and 72 °C for 30 seconds were carried out.
as §11
A general note: Real-time PCR tracks product formation cycle by cycle.

The subject of data set [5] is TZM-GFP cells. As to the kind of experiment: Cytotoxicity in TZM-GFP cells (XTT or MTT assay). The class given is cell-based. The protocol: as §1, §2, §3, §4, §5, §6, §7, §8, §9, §10
Where [6] appears, read: concentration reducing cellular viability by 50% after 48 h, XTT or MTT assay, P3HR-1 cells, read-out: CC50 (P3HR-1 Cells).
Where [7] appears, read: Human immunodeficiency virus 1, read-out: EC50, Antiviral Activity against HIV-FL (in TZM-GFP Cells).

For `Nc1ncnc2c1ccn2[C@H]1CO[C@@H](CO)O1` [Compound 12], the CC50 at 48 h in data set [1] (setting [6]) is 91.3 µM; in data set [2], above 100 µM. For the same compound, the values for the EC50 in data set [3] (setting [7]) and in data set [4] were 5.85 ± 1.01 µM and above 25 µM, respectively. Moreover, the “antiviral activity against EBV (in words)” value (“antiviral activity” for short) in data set [4] (P3HR-1 cells) was “inactive”. Further, the EC90 in data set [4] was above 25 µM.

`Nc1nc(O)c2ncn(COC(CO)CO)c2n1` [GCV, ganciclovir, reference compound]: the CC50 at 48 h in data set [1] is above 100 µM. For the same compound, in data set [4], the 50% effective concentration (EC50) was 2.5 ± 0.22 µM; the EC90 came out at 16.2 ± 0.21 µM; the “SI (CC50/EC50), EBV” value is above 40.

Take `Nc1ncnc2c1c(Br)cn2[C@H]1CO[C@@H](CO)O1` [Compound 15, 7-Bromo-deazapurine-D-dioxolane nucleoside]: in data set [1] (setting [6]), the half-maximal cytotoxic concentration (CC50) at 48 h was determined as 49.9 µM. In data set [2], this compound yielded a CC50 at 48 h of 41.9 µM. Also, the EC50 in data set [3] (setting [7]) turned out to be 20.8 ± 0.25 µM. Further, the “potency against EBV relative to ganciclovir (times more potent)” value in data set [4] (EC50 compared with GCV, P3HR-1 cells) was 14. Moreover, the “antiviral activity” value in data set [4] (P3HR-1 cells) is “potent anti-EBV activity”. For the same compound, in data set [4], the 50% effective concentration (EC50) was determined as 0.17 µM; the EC90 amounted to 0.54 ± 0.36 µM; the “SI (CC50/EC50), EBV” value was determined as 294.

`Nc1ncnc2c1c(F)cn2[C@H]1CO[C@@H](CO)O1` [Compound 13]: the CC50 at 48 h was 71.3 ± 25.6 µM in data set [1] (setting [6]) and above 100 µM in data set [2]. Moreover, the EC50 in data set [3] (setting [7]) is 3.96 ± 0.39 µM; in data set [4] it was 1.2 ± 1.8 µM. The EC90 in data set [4] came to 2.28 ± 1.29 µM.

Regarding `CNc1nc(N)nc2c1ccn2[C@H]1CO[C@@H](CO)O1` [Compound 19], the cytotoxic concentration (CC50) at 48 h in data set [1] (setting [6]) was 13.3 µM. Further, the “antiviral activity” value in data set [4] (P3HR-1 cells) is “inactive”. For the same compound, the half-maximal effective concentration (EC50) in data set [4] was above 25 µM.

Regarding `Nc1nc(F)nc2c1ccn2[C@H]1CO[C@@H](CO)O1` [Compound 18], in data set [1] (setting [6]), the CC50 at 48 h was 91.7 µM. For the same compound, in data set [4], the concentration for a half-maximal effect (EC50) turned out to be 15.5 ± 3.7 µM; the concentration for an effect of 90% (EC90) was above 23.9 µM; the “SI (CC50/EC50), EBV” value is 6.

On to `Nc1ncnc2c1c(Cl)cn2[C@H]1CO[C@@H](CO)O1` [Compound 14], for which the CC50 at 48 h in data set [1] (setting [6]) is above 100 µM; in data set [2] it was 88 µM. In addition, the results for the concentration for a half-maximal effect (EC50) in data set [3] (setting [7]) and in data set [4] were 28.7 ± 0.45 µM and 12.5 ± 0.8 µM, respectively. For the same compound, in data set [4], the EC90 is above 25 µM.

Turning to `C=Cc1cn([C@@H]2CO[C@H](CO)O2)c(=O)[nH]c1=O` [L-HDVD, reference compound], the CC50 at 48 h in data set [1] (setting [6]) was above 100 µM. Further, in data set [4], the concentration for a half-maximal effect (EC50) came to 0.12 ± 0.01 µM; the EC90 is 0.52 ± 0.04 µM; the “SI (CC50/EC50), EBV” value was above 833.

As to `Nc1ncnc2c1c(I)cn2[C@H]1CO[C@@H](CO)O1` [Compound 16], the CC50 at 48 h was found to be 21.2 µM in data set [1] (setting [6]) and 11.9 µM in data set [2]. Moreover, the EC50 amounted to 10.3 ± 0.39 µM in data set [3] (setting [7]) and 0.47 ± 0.2 µM in data set [4]. The “antiviral activity” value in data set [4] (P3HR-1 cells) is recorded as “potent anti-EBV activity”. In addition, in data set [4], the EC90 is 1.5 ± 0.09 µM. Besides, in data set [4], the “SI (CC50/EC50), EBV” value was determined as 45.

The compound `Cc1[nH]c2ccccc2c1CC(=O)N[C@@H](Cc1ccccc1)C(=O)N(C)c1ccccc1` [PF-74, reference compound] came in with a CC50 in data set [5] above 100 µM. For the same compound, the concentration giving a half-maximal response (EC50) in data set [3] (read-out: EC50, Antiviral Activity against HIV-FL (in TZM-GFP Cells), 48 hpi, MOI = 0.1, TZM-GFP cells, mean of at least three experiments) turned out to be 0.6 ± 0.05 µM. Moreover, in data set [3] (selectivity index = CC50/EC50, TZM-GFP cells), the “SI (CC50/EC50), HIV-FL” value was above 166.

Regarding `Nc1nc(N)c2ccn([C@H]3CO[C@@H](CO)O3)c2n1` [Compound 17], the CC50 at 48 h in data set [1] (setting [6]) is above 100 µM. Further, in data set [4], the 50% effective concentration (EC50) was 11.9 ± 0.3 µM and the “SI (CC50/EC50), EBV” value is on record as above 8.

A word on the CC50: it is the concentration at which the toxic effect on the cells reaches its halfway point. As usually defined, the EC50 is the concentration needed to bring the measured effect to its halfway point. The term EC90 denotes the concentration needed for an effect of 90%.
